Read-outs that look alike come from different tables or passages of the source.
System: adult mongrel dogs
Assay: Renal vasodilating activity in anesthetized dogs
Assay type: in vivo, dog (adult mongrel)
Conditions: Canis lupus familiaris; for change in vivo at 0.2 mg/kg: 0.2 mg/kg intravenous
Method: Goldberg et al, J. Pharmacol. Exp. Ther., 163, 188 (1968), performed an investigation of the structural requirements for dopamine-like renal vasodilation of phenethylamines and apmorphine. The following procedure is a variation of the assay described in that report.
Adult mongrel dogs were anesthetized and surgically prepared for electromagnetic measurement of renal artery blood flow. A carotid artery was cannulated for measuring arterial blood pressure, and drugs were administered intravenously or intraarterially (via the renal artery). Heart rate was monitored with a cardiotachometer. Renal vascular resistance was calculated as the ratio of mean arterial blood pressure/renal artery blood flow. Dopamine was infused intravenously at […] for ten minutes (at an infusion rate of about 1 ml/min) to determine responsiveness of each dog to renal dopamine receptor stimulation. Cumulative dose-response data were obtained by infusing a compound of this invention at progressively increasing (usually three-fold) infusion rates, esch dose being infused for five minutes. The maximum percent increase from pre-drug control in renal artery blood flow (or a decrease in renal vascular resistance) was determined for each infusion dose.
RBF values are percent increase in renal blood flow. RVR values are percent increase in renal vascular resistance. MABP and HR are increases in mean arterial blood pressure and heart rate, respectively, relative to controls.

[1] = iv, read-out: HR, percent change in heart rate
[2] = 6.2 mg/kg intravenous, relative to controls, read-out: MABP, mean arterial blood pressure
[3] = 6.2 mg/kg intravenous, relative to controls, read-out: RBF, renal blood flow
[4] = 6.2 mg/kg intravenous, relative to controls, read-out: RVR, renal vascular resistance
[5] = 6.2 mg/kg intravenous, relative to controls, read-out: HR, percent change in heart rate
[6] = 1.2 mg/kg intravenous, relative to controls, read-out: HR, percent change in heart rate
[7] = 1.2 mg/kg intravenous, relative to controls, read-out: MABP, mean arterial blood pressure
[8] = 1.2 mg/kg intravenous, relative to controls, read-out: RBF, renal blood flow
[9] = 1.2 mg/kg intravenous, relative to controls, read-out: RVR, renal vascular resistance

| Compound | change in vivo at 6.2 mg/kg [2] | change in vivo at 6.2 mg/kg [3] | change in vivo at 6.2 mg/kg [4] | change in vivo at 6.2 mg/kg [5] | change in vivo at 1.2 mg/kg [6] | change in vivo at 1.2 mg/kg [7] | change in vivo at 1.2 mg/kg [8] | change in vivo at 1.2 mg/kg [9] | other results |
| --- | --- | --- | --- | --- | --- | --- | --- | --- | --- |
| COc1cc2c(C)nc(O)c(NC(=O)Nc3ccc(C(F)(F)F)cc3)c2cc1OC [BAD] | 4% | 49% | -29% |  |  |  |  |  | change in vivo at 6.2 mg/kg [1]: 10% |
| COc1cccc(NC(=O)Nc2c(O)nc(C)c3cc(OC)c(OC)cc23)c1 [BAE] |  | 58% | -36% | -2% |  |  |  |  |  |
| COc1cc2c(C)nc(O)c(NC(=O)Nc3cccc(Cl)c3)c2cc1OC [BAF] |  | 30% | -20% | 4% |  |  |  |  |  |
| COc1cc2c(C)nc(O)c(NC(=O)Nc3cccc(C(F)(F)F)c3)c2cc1OC [BAG] | 2% | 23% | -16% | -10% |  |  |  |  |  |
| CCOc1cc2c(C)nc(O)c(NC(=O)NCc3ccccc3)c2cc1OC [BAJ] | -11% | 54% | -32% | -6% |  |  |  |  |  |
| C=CCNC(=O)Nc1c(O)nc(C)c2cc(OC)c(OC)cc12 [BAO, 4-(N'-allylureido)-3-hydroxy-6,7-dimethoxy-1-methylisoquinoline] |  |  |  |  | -3% | 8% | 96% | -44% |  |
| COc1ccc(NC(=O)Nc2c(O)nc(C)c3cc(OC)c(OC)cc23)c(OC)c1 [BAP] |  |  |  |  | -1% | -14% | 17% | -26% |  |
| COc1cc2c(C)nc(O)c(NC(=O)Nc3ccc([N+](=O)[O-])cc3)c2cc1OC [BAR] |  |  |  |  |  |  | 9% | -8% |  |
| COc1cc2c(C)nc(O)c(NC(=O)NC(C)(C)C)c2cc1OC [BAU] | -3% | 12% | -13% | 4% |  |  |  |  |  |
| CCOc1cc2c(NC(=O)Nc3ccc(OC)cc3)c(O)nc(C)c2cc1OC [BAV] | -5% | 35% | -29% | 9% |  |  |  |  |  |
| COc1cc2c(C)nc(O)c(NC(=O)NCCCl)c2cc1OC [BAY] |  |  |  |  |  |  |  |  | change in vivo at 6.2 mg/kg [1]: 27%; change in vivo at 6.2 mg/kg (iv, read-out: MABP, mean arterial blood pressure): 19%; change in vivo at 6.2 mg/kg (iv, read-out: RBF, renal blood flow): 85%; change in vivo at 6.2 mg/kg (iv, read-out: RVR, renal vascular resistance): -35% |
| CCOc1cc2c(NC(=O)Nc3ccc(SC)cc3)c(O)nc(C)c2cc1OC [BBA] | 23% | 53% | -17% | 2% |  |  |  |  |  |
| COc1cc2c(C)nc(O)c(NC(=O)NC3CCCCC3)c2cc1OC [BBE] |  |  |  |  | 2% | 3% | 24% | -16% |  |
| CCCCCCCCNC(=O)Nc1c(O)nc(C)c2cc(OC)c(OC)cc12 [BBF] |  |  |  |  | -14% |  | 19% | -24% |  |
| COc1ccc(NC(=O)Nc2c(O)ncc3cc(OC)c(OC)cc23)cc1 [BBG] |  |  |  |  |  | 1% | 15% | -11% | change in vivo at 1.2 mg/kg [1]: 12% |
| COc1ccc(NC(=O)Nc2c(O)nc(C)c3cc(OC)c(OC)cc23)cc1OC [BBL] |  |  |  |  | -1% | 5% | 13% | -8% |  |

| Compound | change in vivo at 6.2 mg/kg [2] | change in vivo at 6.2 mg/kg [3] | change in vivo at 6.2 mg/kg [4] | change in vivo at 6.2 mg/kg [5] | change in vivo at 1.2 mg/kg [6] | change in vivo at 1.2 mg/kg [7] | change in vivo at 1.2 mg/kg [8] | change in vivo at 1.2 mg/kg [9] | other results |
| --- | --- | --- | --- | --- | --- | --- | --- | --- | --- |
| COc1cc2c(C)nc(O)c(NC(=O)NCCc3ccccc3)c2cc1OC [BBM] |  |  |  |  |  |  |  |  | change in vivo at 0.2 mg/kg (relative to controls, read-out: HR, percent change in heart rate): -1%; change in vivo at 0.2 mg/kg (relative to controls, read-out: RBF, renal blood flow): 12%; change in vivo at 0.2 mg/kg (relative to controls, read-out: RVR, renal vascular resistance): -10% |
| COC(=O)Nc1c(O)nc(C)c2cc(OC)c(OC)cc12 [BBR] | -7% | 30% | -29% | 27% |  |  |  |  |  |
| COc1ccc(NC(=O)Nc2c(O)nc(C)c3cc(OC)ccc23)cc1 [BBS] |  |  |  |  | 5% | 2% | 17% | -4% |  |
| COc1cc2c(C)nc(O)c(NC(=O)Nc3ccc(C#N)cc3)c2cc1OC [BBX] |  |  |  |  | -11% | -11% | 12% | -20% |  |
| CNC(=O)Nc1c(O)nc(C)c2cc(OC)c(OC)cc12 [BBY] |  |  |  |  | -4% | 6% | 21% | -12% |  |
| COc1cc2c(C)nc(O)c(NC(=O)Nc3ccc(N)cc3)c2cc1OC [BBZ] |  |  |  |  | 8% | 5% | 22% | -12% |  |
| CCNC(=O)Nc1c(O)nc(C)c2cc(OC)c(OC)cc12 [BCD] |  |  |  |  |  |  | 28% | -22% |  |
| COc1ccc(NC(=O)Nc2c(O)nc(C)c3cc(OC)c(OC)cc23)cc1 [BP, 4-(N'-para-methoxyphenylureido)-3-hydroxy-6,7-dimethoxy-1-methylisoquinoline] | 12% | 68% | -32% | 2% |  |  |  |  |  |
| CCOc1cc2c(C)nc(O)c(NC(N)=O)c2cc1OC [BS] |  | 33% | -24% | 4% |  |  |  |  |  |
| CCOc1cc2c(C)nc(O)c(NC(=O)Nc3ccc(C(F)(F)F)cc3)c2cc1OC [BV] | -6% | 25% | -24% | 26% |  |  |  |  |  |
| CCCCOC(=O)Nc1c(O)nc(C)c2cc(OC)c(OC)cc12 [Compound BBP, 4-[N-(n-Butoxycarbonyl)amino]-3-hydroxy-6,7-dimethoxy-1-methylisoquinoline] | 1% | 77% | -42% |  |  |  |  |  |  |
| COc1cc2c(C)nc(O)c(NC(=O)Nc3ccc(C(=O)O)cc3)c2cc1OC [Compound BCA, 4-[N-(4-Carboxyphenyl)ureido]-3-hydroxy-6,7-dimethoxy-1-methylisoquinoline.5/2 Hydrate] |  |  |  |  | -12% | -1% | 40% | -28% |  |
| COc1cc2c(C)nc(O)c(NC(=O)Nc3ccc([S+](C)[O-])cc3)c2cc1OC (stereo not drawn) [Compound BCB, Hydrate] |  |  |  |  | -1% | 5% | 12% | -6% |  |
| COc1cc2c(C)nc(O)c(NC(N)=O)c2cc1OC [Compound BM, 6,7-Dimethoxy-3-hydroxy-1-methyl-4-ureidoisoquinoline] | 18% | 59% | -23% | -10% |  |  |  |  |  |
| CCCCNC(=O)Nc1c(O)nc(C)c2cc(OC)c(OC)cc12 [Compound BR, 4-(N'-n-Butylureido)-3-hydroxy-6,7-dimethoxy-1-methylisoquinoline Hemihydrate] | -1% | 128% | -56% | -9% |  |  |  |  |  |

— US4714705A, “4-nitrogen substituted isoquinolinol compounds having cardiotonic, phosphodiesterase fraction III inhibiting properties and/or renal vasodilating properties” (Ortho Pharmaceutical Corporation, priority 1986, dated 1987)
